From patent US7402663B2, “Modified peptide” (University of Ulster, priority 2001, dated 2008)
Like-named read-outs stand apart in the source and are kept apart here. Values belong to the compound of their own block, whether it stands above or below them. Numbered stars: 1 amine (or outer) side, 2 acyl side, 3 side chain; on linkers, the order of the positions; unused ones are H or OH. Square brackets hold non-standard residues; d marks the D form. Ends that are not written are not given here. Peptide text beside a SMILES is read from it. X1 = O=C(O)C[C@@H](C(=O)[*:2])N(C[C@H](O)[C@@H](O)[C@H](O)[C@H](O)CO)[*:1]; sY = N[C@@H](Cc1ccc(OS(=O)(=O)O)cc1)C(=O)O

Legend:
Swiss TO mice = experiment: Voluntary food intake in fasted Swiss TO mice after i.p. injection; format: in vivo, mouse
Description: Effects of CCK-8, Asp^1glucitol CCK-8, pGlu-Gln CCK-8 and other peptides on food intake in mice. Studies to evaluate the relative potencies of control CCK-8, Asp^1-glucitol CCK-8, pGlu-Gln CCK-8 and other peptides involved in regulation of feeding were performed using male Swiss TO mice (n=16) aged 7-12 weeks from a colony originating from the Behavioral and Biomedical Research Unit, University of Ulster. The animals were housed individually in an air-conditioned room at 22±2° C. with 12 h light/12 h dark cycle. Drinking water was supplied ad libitum and standard mouse maintenance diet (Trouw Nutrition, Cheshire, UK) was provided for various times as indicated below. The mice were habituated to a daily feeding period of 3 h/day by progressively reducing the feeding period over a 3 week period. On days 1-6, food was supplied from 10.00 to 20.00 h, days 7-14 from 10.00 to 16.00 h and days 15-21 food was restricted to 10.00 to 13.00 h. Body weight, food and water intake were monitored daily.
(§1) Mice which had been previously habituated to feeding for 3 h/day were administered a single i.p. injection of saline (0.9% w/v NaCl, 10 ml/kg) in the fasted state (10.00 h) and food was immediately returned following injection. Two days after the saline injection, mice were randomly allocated into groups of 7-8 animals which were administered a single i.p. injection (from 1 to 100 nmol/kg) of either CCK-8, structurally modified CCK-8 analogues and/or other peptide hormones (including, bombesin, leptin and islet amyloid polypeptide (IAPP)). Food intake was carefully monitored at 30 min intervals up to 180 min post injection. In one series of experiments, the ability of CCK-8 and Asp^1-glucitol CCK-8 to inhibit feeding activity was studied in overnight fasted adult obese hyperglycaemic (ob/ob) mice. All animal studies were done in accordance with the Animals (Scientific Procedures) Act 1986.
Statistical analysis. Groups of data are presented as means±SE. Statistical evaluation was performed using analysis of variance, least significant difference multiple comparisons test and Student's unpaired t-test as appropriate. Differences were considered to be significant if P<0.05.

[1] = generally accepted; cited from earlier work
[2] = Effects of mouse serum on in vitro degradation of peptides (HPLC); format: in vitro ADME
Description: Effects of mouse serum on degradation of CCK-8, Asp^1glucitol CCK-8 and pGlu-Gln CCK-8. Serum (20 μl) from fasted Swiss TO mice was incubated at 37° C. with 10 μg of either native CCK-8, Asp^1-glucitol CCK-8 or pGlu-Gln CCK-8 for periods up to 2 h in a reaction mixture (final vol. 500 μl ) containing 50 mmol/l triethanolamine/HCl buffer pH 7.8. The reaction was stopped by addition of 5 μl of TFA and the final volume adjusted to 1.0 ml using 0.1% (v/v) TFA/water. Samples were centrifuged (13,000 g, 5 min) and the supernatant applied to a C-18 Sep-Pak cartridge (Waters/Millipore) which was previously primed and washed with 0.1% (v/v) TFA/water. After washing with 20 ml 0.12% TFA/water, bound material was released by elution with 2 ml of 80% (v/v) acetonitrile/water and concentrated using a Speed-Vac concentrator (AES 1000, Savant). The volume was adjusted to 1.0 ml with 0.12% (v/v) TFA/water and applied to a (250×4.6 mm) Vydac C-18 column pre-equilibrated with 0.12% (v/v) TFA/water at a flow rate of 1.0 ml/min. The concentration of acetonitrile in the eluting solvent was raised from 0 to 31.5% over 15 min, from 31.5 to 38.5% over 30 min, and from 38.5 to 70% over 5 min, using linear gradients monitoring eluting peaks at 206 nm.

[3] = tested on: obese diabetic (ob/ob) mice; experiment: Voluntary food intake in fasted obese diabetic (ob/ob) mice after i.p. injection; format: in vivo, mouse; conditions: 100 nmol/kg i.p.
Description: as §1
FIG. 4 Effect of CCK-8, Asp^1-glucitol CCK-8 or saline on voluntary food intake in obese diabetic (ob/ob) mice. Saline or test agents were administered by i.p. injection (100 nmol/kg) to fasted obese diabetic (ob/ob) mice at time 0 immediately before introduction of food. Cumulative food intake was monitored at 30, 60, 90, 120, 150, 180, 210, 240, 270 and 300 min post injection. Values are means±SE of 8 observations. […]

Compound: glycated tGLP-1: control peptide with a glucitol adduct on the amino-terminus (glucitol-HAEGTFTSDVSSYLEGQAAKEFIAWLVKGR; ends and bridges not checked; UniProt P01275 98-127, looked up)
- induction of satiety (control experiment) (Swiss TO mice; control experiments in this test system): insufficient on its own to induce satiety

- metabolised at 1 h, 20 µg/ml ([2]; Swiss TO, pH 7.8, after 1 h incubation with mouse serum, read-out: % converted to CCK-8 fragments (HPLC peak area)): 83.1%
- metabolised at 2 h, 20 µg/ml ([2]; Swiss TO, pH 7.8, after 2 h incubation with mouse serum, read-out: % converted to CCK-8 fragments (HPLC peak area)): 100%
- remaining at 1 h, 20 µg/ml ([2]; Swiss TO, pH 7.8, intact peptide peak, incubation time 1 h, mouse serum, 37° C., read-out: % Total CCK-like material): 16.9%
- remaining at 2 h, 20 µg/ml ([2]; Swiss TO, pH 7.8, intact peptide peak, incubation time 2 h, mouse serum, 37° C., read-out: % Total CCK-like material): 0%
- % Total CCK-like material ([2]; intact peptide peak, incubation time 0 h, mouse serum, 37° C.): 100%
- % Total CCK-like material ([2]; peak CCK-8 fragment (B), incubation time 1 h): 39.3%
- % Total CCK-like material ([2]; peak CCK-8 fragment (B), incubation time 2 h): 58.7%
- % Total CCK-like material ([2]; peak CCK-8 fragment (C), incubation time 1 h): 43.8%
- % Total CCK-like material ([2]; peak CCK-8 fragment (C), incubation time 2 h): 29.5%
- % Total CCK-like material ([2]; peak CCK-8 fragment (D), incubation time 2 h): 11.8%
Compound: CSCC[C@H](NC(=O)[C@H](Cc1ccc(OS(=O)(=O)O)cc1)NC(=O)[C@@H](N)CC(=O)O)C(=O)NCC(=O)N[C@@H](Cc1c[nH]c2ccccc12)C(=O)N[C@@H](CCSC)C(=O)N[C@@H](CC(=O)O)C(=O)N[C@@H](Cc1ccccc1)C(N)=O [CCK-8, Asp^1Tyr^2(SO3H)-Met^3Gly^4Trp^5Met^6Asp^7Phe^8amide]
- half-life [1]: 1 to 2 min

- % Total CCK-like material [2]: 100%
- remaining at 1 h, 20 µg/ml ([2]; Swiss TO, mouse, serum, pH 7.8): 100%
- remaining at 2 h, 20 µg/ml ([2]; Swiss TO, mouse, serum, pH 7.8): 100%
Compound: CSCC[C@H](NC(=O)[C@H](Cc1ccc(OS(=O)(=O)O)cc1)NC(=O)[C@H](CC(=O)O)NC[C@H](O)[C@@H](O)[C@H](O)[C@H](O)CO)C(=O)NCC(=O)N[C@@H](Cc1c[nH]c2ccccc12)C(=O)N[C@@H](CCSC)C(=O)N[C@@H](CC(=O)O)C(=O)N[C@@H](Cc1ccccc1)C(N)=O [Asp^1-glucitol CCK-8] (H-[X1][sY]MGWMDF-NH2)
- potency at reducing food intake compared to equivalent dose of CCK-8 (Swiss TO mice; 100 nmol/kg i.p., FIG. 3): significantly more potent at reducing food intake at each time point (except at 30 min)
- sustained inhibition of cumulative food intake over 3 h compared to saline (Swiss TO mice; 100 nmol/kg i.p., FIG. 3, up to 180 min): sustained over the 3 h post-treatment feeding period
- dose-response effects on food intake compared with CCK-8 (Swiss TO mice; 1 to 100 nmol/kg i.p., FIGS. 5-7): more prolonged effects at lower doses
- potency compared with native CCK-8 ([3]; FIG. 4): considerable more potent
- effect on voluntary food intake ([3]; FIG. 4, up to 300 min): significantly reduce voluntary food intake
